For 121 compounds, melting point results are on record in a melting point compilation (Tetko et al.).

SMILES strings stand for the structures. Some results are limits rather than exact numbers.

What is called melting point is the temperature of the solid-liquid transition. In turn, `O=C(O)c1ccc(Oc2cccc(F)c2[N+](=O)[O-])c(Cl)c1` had a melting point of 169 to 171 °C.

Compound `O=S1CCCNc2ccccc21` (stereo unspecified) displayed a melting point of 122 to 124 °C.

The compound `COc1ccnc(Cl)n1` showed a melting point of 57 to 58 °C.

Take `CCOc1ccc(N)cc1S(=O)(=O)N(C)C`: the melting point was < 17 °C.

`Cc1ccc(F)cc1Nc1ncc(C(=O)O)cc1Cl` displayed a melting point of 209 to 211 °C.

The compound `COc1ccc(-c2cc(C(=O)O)n(-c3ccccc3)n2)cc1` registered a melting point of 190 to 192 °C.

`O=C(O)COC1CCOCC1` returned a melting point of 65 to 67 °C.

As for `Cc1nc(C(=O)O)nn1-c1ccccc1Cl`, the melting point lay within 189 to 191 °C.

`Cc1cc(Cl)c2cc(OC(F)F)ccc2n1` came in with a melting point of 81 to 83 °C.

With `O=C(CN1C(=O)CCC1=O)c1ccccc1Cl`, the melting point was in the range of 118 to 120 °C.

Compound `NS(=O)(=O)c1ccc(N2CCC(C(=O)O)CC2)c([N+](=O)[O-])c1` yielded a melting point of 181 to 183 °C.

`ClCc1noc(-c2ccc(Cl)cc2)n1` came in with a melting point of 79 to 81 °C.

In turn, `ClCc1ncc(-c2ccccc2)s1` came in with a melting point of 39 to 41 °C.

`Cc1oc(S(N)(=O)=O)cc1C(=O)O` came in with a melting point of 209 to 211 °C.

Compound `Cn1c(=O)n(C)c2cc(S(N)(=O)=O)c(Br)cc21` displayed a melting point of 314 to 316 °C.

In turn, `CC(C)n1c(=O)[nH]c2cc(C(=O)O)ccc2c1=O` yielded a melting point of 332 to 334 °C.

As for `COc1ccc(NS(=O)(=O)c2ccc(N)cc2)cc1OC`, the melting point fell in the range of 171 to 173 °C.

In turn, `CCN(CC)S(=O)(=O)c1ccc(C(C)=O)cc1` had a melting point of 81 to 83 °C.

As to `N#Cc1cccc2cnccc12`, the melting point lay in the range of 126 to 128 °C.

Take `CCOc1cc(C=O)ccc1OCc1cccnc1`: the melting point fell in the range of 73 to 75 °C.

`COC(=O)Nc1snc(C)c1C(=O)O` showed a melting point of 215 to 217 °C.

On to `CC(C)C(N)=S`, for which the melting point was in the range of 42 to 44 °C.

For `CC(C)C(=O)Nc1cc(C(=O)O)c(F)cc1F`, the melting point lay in the range of 233 to 235 °C.

`NC(CN1CCCC1)=NO` showed a melting point of 142 to 144 °C.

`CC(C)Oc1ccc(C(=O)O)cn1` displayed a melting point of 122 to 124 °C.

`Nc1ccnc2ccnn12` displayed a melting point of 198 to 200 °C.

Compound `O=C(O)c1csc(-c2ncccn2)n1` displayed a melting point of 217 to 219 °C.

With `CC(=O)CC(=O)c1ccc(Br)cc1`, the melting point fell in the range of 92 to 94 °C.

Compound `O=C1OC(C=Cc2ccccc2)=NC1=Cc1cccnc1` gave a melting point of 165 to 167 °C.

Compound `Nc1nc(-c2cccc(O)c2)cs1` returned a melting point of 151 to 153 °C.

With `CC(N)c1nc(-c2ccc(Br)cc2)cs1` (stereo unspecified), the melting point was in the range of 77 to 79 °C.

The compound `Fc1cccc(NC2CCOCC2)c1` gave a melting point of 70 to 72 °C.

`CC1CCCC(C)N1S(=O)(=O)c1ccc(N)cc1` (stereo unspecified): the melting point fell in the range of 215 to 217 °C.

For `CN1CCC2(CC1)NC(=O)NC2=O`, the melting point is 283 to 285 °C.

Compound `O=C1CCNc2ccccc2N1` showed a melting point of 132 to 134 °C.

With `CNS(=O)(=O)CC(=O)O`, the melting point was in the range of 119 to 121 °C.

`CNc1cc(Cl)nc(C)n1`: the melting point was in the range of 143 to 145 °C.

Compound `COC(=O)c1cc(CBr)cc(C(=O)OC)c1` yielded a melting point of 139 to 141 °C.

Turning to `CN1CCN(S(=O)(=O)c2cccc(N)c2)CC1`, the melting point lay in the range of 140 to 142 °C.

`CC1(C)SC(=O)NC1=O`: the melting point was 77 to 79 °C.

For the compound `O=[N+]([O-])c1ccccc1C(O)c1cccnc1` (stereo unspecified), the melting point fell in the range of 102 to 104 °C.

`COc1ccc(C)cc1CC(=O)O` came in with a melting point of 131 to 133 °C.

For `COC(=O)Cc1ccccc1O`, the melting point is 69 to 71 °C.

Regarding `O=[N+]([O-])c1c(Cl)ccc2ncccc12`, the melting point was 119 to 121 °C.

On to `Cc1n[nH]c(C)c1S(=O)(=O)N1CCC(C)CC1`, for which the melting point lay in the range of 178 to 180 °C.

`CS(=O)(=O)Nc1cc(Br)ccc1F` yielded a melting point of 143 to 145 °C.

`COC(=O)C=CN(C)C` had a melting point of 43 to 45 °C.

In turn, `COc1ccc(NC(=O)c2ccc(CCl)cc2)cc1` had a melting point of 189 to 191 °C.

For `O=Cc1ccc(-c2ccc(Cl)c(Cl)c2)s1`, the melting point is 126 to 128 °C.

As to `O=C(O)c1c(O)cccc1Cl`, the melting point was in the range of 166 to 168 °C.

Regarding `O=C(O)CCCCN1C(=O)C=CC1=O`, the melting point is 84 to 86 °C.

`Nc1nc(C(F)(F)F)cs1` came in with a melting point of 66 to 68 °C.

In turn, `N#Cc1cccc(I)c1N` displayed a melting point of 115 to 117 °C.

Compound `O=C(O)C1CNc2ccccc21` (stereo unspecified) returned a melting point of 178 to 180 °C.

`Nc1ccc(Cl)c(C(=O)Nc2ccccc2)c1` gave a melting point of 115 to 117 °C.

`O=C(O)c1ccc(Cl)c2cccnc12` had a melting point of 199 to 201 °C.

`O=C(Nc1ccccc1C(=O)O)c1ccccc1Br` returned a melting point of 201 to 203 °C.

With `COC(=O)c1ccc(S(=O)(=O)Cl)cc1C`, the melting point lay within 54 to 56 °C.

For the compound `O=C(NC1CC=CCC1)C(F)(F)F` (stereo unspecified), the melting point is 58 to 60 °C.

For the compound `CCCC(NC(C)=O)C(=O)O` (stereo unspecified), the melting point lay within 114 to 116 °C.

The compound `CN1CCN(C(=O)C2CCN(C(=O)OC(C)(C)C)CC2)CC1` returned a melting point of 95 to 97 °C.

For `COc1ccc(-c2noc(CCl)n2)cc1OC`, the melting point lay within 101 to 103 °C.

The compound `O=C1NCCCc2cc(O)ccc21` registered a melting point of 219 to 221 °C.

Compound `Nc1ccc(N2CCCCC2)c(S(=O)(=O)Nc2ccccc2Cl)c1` gave a melting point of 146 to 148 °C.

Consider `CN(C(=O)CCl)C1(c2ccccc2Cl)CCCCC1=O` (stereo unspecified), for which the melting point was in the range of 110 to 112 °C.

For the compound `O=[N+]([O-])c1ccn(CCBr)n1`, the melting point was 50 to 52 °C.

For the compound `CN(C)CCc1ccc(C(=O)O)cc1`, the melting point fell in the range of 163 to 165 °C.

Consider `O=C(O)C1CC2CCCC(C1)C2=O` (stereo unspecified), for which the melting point is 129 to 131 °C.

Compound `CCCC(NC(=O)c1ccccc1)C(N)=S` (stereo unspecified) had a melting point of 202 to 204 °C.

As for `CC1=C(C(=O)O)Cc2ccccc2O1`, the melting point was 234 to 236 °C.

As for `O=C(O)c1[nH]nc(-c2ccccc2)c1Br`, the melting point was 260 to 262 °C.

In the case of `N#CCOc1cccc(CC(=O)O)c1`, the melting point lay within 79 to 81 °C.

Regarding `COc1ccc2oc(C(=O)O)c(C)c2c1`, the melting point is 202 to 204 °C.

On to `O=C(O)CNC(=O)c1cccc(Br)c1`, for which the melting point lay in the range of 148 to 150 °C.

Take `CC(C)CNS(=O)(=O)c1ccc(Br)c(C(=O)O)c1`: the melting point lay within 174 to 176 °C.

In the case of `Oc1ccc(Cl)cc1C(F)(F)F`, the melting point fell in the range of 67 to 69 °C.

`N#CC1=C(C(=O)O)CCC1` displayed a melting point of 108 to 110 °C.

The compound `O=C(CC(=O)Nc1cc(Cl)ccc1Cl)Nc1cc(Cl)ccc1Cl` registered a melting point of 226 to 228 °C.

As for `O=S(=O)(O)c1ccnc2ccccc12`, the melting point lay within 317 to 319 °C.

In turn, `CC(C)(C)n1nc[nH]c1=O` yielded a melting point of 219 to 221 °C.

Regarding `O=C(O)c1cccc(NC(=O)c2ccc(F)cc2)c1`, the melting point was in the range of 279 to 281 °C.

Compound `Cn1cc(C=O)c(-c2ccc3c(c2)OCCCO3)n1` yielded a melting point of 99 to 101 °C.

With `CC(C)CC1CC(C(=O)O)CC(=O)N1` (stereo unspecified), the melting point was in the range of 188 to 190 °C.

Compound `CCc1nc2ccccc2n1CC#N` had a melting point of 104 to 106 °C.

Consider `Cc1cc(C)c(C(=O)CCl)c(C)c1C(=O)CCl`, for which the melting point was 136 to 138 °C.

`COc1ccc(CCl)cc1Br` yielded a melting point of 45 to 51 °C.

The compound `COc1ccc(-c2nc(CC(=O)O)cs2)cc1OC` showed a melting point of 162 to 164 °C.

For the compound `COC(=O)c1cc([N+](=O)[O-])cc(C)c1C`, the melting point fell in the range of 72 to 74 °C.

In turn, `CC(N)c1ccc(NC(=O)Nc2ccccc2)cc1` (stereo unspecified) registered a melting point of 165 to 167 °C.

For the compound `CC(=O)c1ccc(S(=O)(=O)NCc2ccc(F)cc2)cc1`, the melting point is 149 to 151 °C.

`Cn1c(CO)nc2cc(Cl)ccc21`: the melting point lay within 179 to 181 °C.

The compound `CC(O)c1ccc2c(c1)Nc1ccccc1S2` (stereo unspecified) showed a melting point of 149 to 151 °C.

`CC1CCN(C(=O)CCl)c2ccccc2S1` (stereo unspecified) came in with a melting point of 125 to 127 °C.

`Cn1ncc2c(=O)[nH]c(CCl)nc21` gave a melting point of 232 to 234 °C.

`O=Cc1ccc(-c2ccc(Cl)cc2)s1` yielded a melting point of 83 to 87 °C.

As for `CC(C)(C)c1cc([N+](=O)[O-])c(O)c(C(C)(C)C)c1`, the melting point is 58 to 60 °C.

On to `NC(=O)CCC(NC(=O)CCC1CCCC1)C(=O)O` (stereo unspecified), for which the melting point lay in the range of 146 to 148 °C.

`COc1ccccc1-c1nn(C)cc1C(=O)O` returned a melting point of 203 to 205 °C.

In turn, `Clc1ccc(-n2ccnc2)nn1` showed a melting point of 185 to 187 °C.

With `CCOCCNC(N)=O`, the melting point fell in the range of 60 to 62 °C.

In the case of `O=C(NCCO)c1cccnc1`, the melting point was in the range of 74 to 76 °C.

`Cn1ccnc1Sc1ccccc1N`: the melting point is 121 to 123 °C.

`O=C(O)CNC(=O)C1c2ccccc2C(=O)N1C1CC1` (stereo unspecified): the melting point was 242 to 244 °C.

`NC(=O)c1[nH]cnc1N` yielded a melting point of 249 to 251 °C.

Compound `O=C(O)c1ccc(Cn2cc(Cl)cn2)o1` came in with a melting point of 117 to 119 °C.

As to `Cc1ccc(-n2c(S)nnc2-c2ccccn2)c(C)c1`, the melting point lay in the range of 234 to 236 °C.

The compound `O=C(CCl)NC1CS(=O)(=O)CC1Cl` (stereo unspecified) came in with a melting point of 181 to 190 °C.

Compound `CC1=NN(c2ccc(Cl)c(Cl)c2)C(=O)C1` yielded a melting point of 158 to 160 °C.

`Nc1nnnn1-c1ccccc1` displayed a melting point of 159 to 161 °C.

On to `CC(=O)c1ccc(OCC(=O)Nc2ccccc2)cc1`, for which the melting point fell in the range of 94 to 96 °C.

The compound `COC(=O)c1c(C2CC2)csc1N` had a melting point of 72 to 74 °C.

Consider `O=C(O)Cc1ccc(C(F)(F)F)cc1[N+](=O)[O-]`, for which the melting point lay within 145 to 147 °C.

Turning to `O=c1[nH]cnc2cc(F)c([N+](=O)[O-])cc12`, the melting point was 292 to 294 °C.

The compound `O=C(O)CNS(=O)(=O)c1c[nH]c2ncccc12` showed a melting point of 273 to 275 °C.

For the compound `O=C(O)Cn1nnc(-c2ccccc2)n1`, the melting point lay within 180 to 182 °C.

With `CNS(=O)(=O)N1CCc2ccccc2C1`, the melting point was in the range of 88 to 90 °C.

Turning to `COCCn1c(N)c(NCc2ccccc2)c(=O)[nH]c1=O`, the melting point fell in the range of 151 to 153 °C.

For the compound `COC(=O)CN1CCC(C(N)=O)CC1`, the melting point lay in the range of 126 to 128 °C.

For `O=C(OCc1ccccc1)N1CCCC(CS(=O)(=O)Cl)C1` (stereo unspecified), the melting point was 81 to 83 °C.

The compound `CC(C)(C)c1ccc2c(c1)C(=O)C(=O)N2` yielded a melting point of 145 to 147 °C.

The compound `Nc1cc2c(cc1Br)NC(=O)CO2` yielded a melting point of 209 to 211 °C.
